Values after ≈ are worked out from the molar mass of the structure shown.
Assays:
[1] = molecular target: Disintegrin and metalloproteinase domain-containing protein 17 (Homo sapiens, UniProt P78536); experiment: Inhibition of TACE
[2] = Bioavailability in Guinea pig at 1 mg/ml, po; format: ADME, organism-based, Cavia porcellus; settings: in vivo
[3] = Solubility in water; format: physicochemical
Lethal factor [4] = molecular target: T1, Lethal factor (Bacillus anthracis, UniProt P15917)
T1 sequence (P15917 whole entry): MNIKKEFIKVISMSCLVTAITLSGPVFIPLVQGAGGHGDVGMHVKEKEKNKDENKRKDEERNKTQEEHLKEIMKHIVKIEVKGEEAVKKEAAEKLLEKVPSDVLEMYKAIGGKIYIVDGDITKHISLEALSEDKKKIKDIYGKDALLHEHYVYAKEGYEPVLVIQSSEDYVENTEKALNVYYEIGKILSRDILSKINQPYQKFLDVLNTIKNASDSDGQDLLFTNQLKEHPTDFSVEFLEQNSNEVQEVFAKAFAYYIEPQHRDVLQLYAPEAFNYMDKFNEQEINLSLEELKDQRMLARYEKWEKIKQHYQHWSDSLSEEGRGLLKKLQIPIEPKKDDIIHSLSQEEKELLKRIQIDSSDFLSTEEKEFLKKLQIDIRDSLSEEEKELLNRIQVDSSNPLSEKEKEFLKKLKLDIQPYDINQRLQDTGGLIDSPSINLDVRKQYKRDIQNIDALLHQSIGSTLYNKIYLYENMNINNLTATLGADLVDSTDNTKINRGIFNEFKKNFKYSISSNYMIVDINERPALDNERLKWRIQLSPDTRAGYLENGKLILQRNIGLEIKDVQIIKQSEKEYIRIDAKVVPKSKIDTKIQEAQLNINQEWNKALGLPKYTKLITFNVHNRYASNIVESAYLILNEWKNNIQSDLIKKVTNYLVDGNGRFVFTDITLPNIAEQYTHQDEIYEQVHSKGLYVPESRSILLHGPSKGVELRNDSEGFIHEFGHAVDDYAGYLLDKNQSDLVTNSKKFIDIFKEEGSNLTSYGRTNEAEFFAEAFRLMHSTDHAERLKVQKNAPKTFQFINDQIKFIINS

[5] = Half life in Sprague-Dawley rat at 1 mg/kg, iv; format: ADME, organism-based; design: dose 1 mg/kg, route intravenous; settings: in vivo
[6] = Volume of distribution in Dutch Belted rabbit at 2 mg/kg, iv; format: ADME, organism-based, Oryctolagus cuniculus; design: dose 2 mg/kg, route intravenous; settings: in vivo, read-out: Vdss
Stromelysin-1 = Stromelysin-1 (Homo sapiens, UniProt P08254); experiment: Inhibition of MMP3
Interstitial collagenase = molecular target: T2, Interstitial collagenase (Homo sapiens, UniProt P03956); experiment: Inhibition of MMP1
T2 sequence (P03956 whole entry): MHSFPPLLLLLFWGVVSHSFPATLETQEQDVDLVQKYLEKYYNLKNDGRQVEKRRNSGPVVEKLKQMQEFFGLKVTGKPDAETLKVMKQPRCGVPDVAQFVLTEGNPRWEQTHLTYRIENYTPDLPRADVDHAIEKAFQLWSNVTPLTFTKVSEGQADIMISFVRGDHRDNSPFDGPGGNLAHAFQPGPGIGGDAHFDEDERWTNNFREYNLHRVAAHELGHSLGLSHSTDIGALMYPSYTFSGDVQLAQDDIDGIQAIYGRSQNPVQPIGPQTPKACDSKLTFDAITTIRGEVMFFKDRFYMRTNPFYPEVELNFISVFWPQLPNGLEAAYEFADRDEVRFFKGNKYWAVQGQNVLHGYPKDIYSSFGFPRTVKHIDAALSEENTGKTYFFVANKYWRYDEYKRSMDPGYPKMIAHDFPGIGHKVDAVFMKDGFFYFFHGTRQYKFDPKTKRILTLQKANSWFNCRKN

[7] = molecular target: 72 kDa type IV collagenase (Homo sapiens, UniProt P08253); experiment: Inhibition of MMP2
[8] = Cmax in BALB/c mice at 10 mg/kg, iv; format: ADME, organism-based; design: dose 10 mg/kg, route intravenous; settings: mouse, in vivo
[9] = Cmax in Sprague-Dawley rat at 1 mg/kg, iv; format: ADME, organism-based; design: dose 1 mg/kg, route intravenous; settings: in vivo
[10] = Volume of distribution in BALB/c mice at 10 mg/kg, iv; format: ADME, organism-based; design: dose 10 mg/kg, route intravenous; settings: mouse, in vivo, read-out: Vdss
[11] = Half life in Guinea pig at 2 mg/kg, iv; format: ADME, organism-based, Cavia porcellus; design: dose 2 mg/kg, route intravenous; settings: in vivo
[12] = Clearance in BALB/c mice at 10 mg/kg, iv; format: ADME, organism-based; design: dose 10 mg/kg, route intravenous; settings: mouse, in vivo
Lethal factor [13] = molecular target: T1, Lethal factor; experiment: Inhibition of LF; settings: read-out: IC50

Disintegrin and metalloproteinase domain-containing protein 17, sequence (P78536 whole entry, the tested form may be a part): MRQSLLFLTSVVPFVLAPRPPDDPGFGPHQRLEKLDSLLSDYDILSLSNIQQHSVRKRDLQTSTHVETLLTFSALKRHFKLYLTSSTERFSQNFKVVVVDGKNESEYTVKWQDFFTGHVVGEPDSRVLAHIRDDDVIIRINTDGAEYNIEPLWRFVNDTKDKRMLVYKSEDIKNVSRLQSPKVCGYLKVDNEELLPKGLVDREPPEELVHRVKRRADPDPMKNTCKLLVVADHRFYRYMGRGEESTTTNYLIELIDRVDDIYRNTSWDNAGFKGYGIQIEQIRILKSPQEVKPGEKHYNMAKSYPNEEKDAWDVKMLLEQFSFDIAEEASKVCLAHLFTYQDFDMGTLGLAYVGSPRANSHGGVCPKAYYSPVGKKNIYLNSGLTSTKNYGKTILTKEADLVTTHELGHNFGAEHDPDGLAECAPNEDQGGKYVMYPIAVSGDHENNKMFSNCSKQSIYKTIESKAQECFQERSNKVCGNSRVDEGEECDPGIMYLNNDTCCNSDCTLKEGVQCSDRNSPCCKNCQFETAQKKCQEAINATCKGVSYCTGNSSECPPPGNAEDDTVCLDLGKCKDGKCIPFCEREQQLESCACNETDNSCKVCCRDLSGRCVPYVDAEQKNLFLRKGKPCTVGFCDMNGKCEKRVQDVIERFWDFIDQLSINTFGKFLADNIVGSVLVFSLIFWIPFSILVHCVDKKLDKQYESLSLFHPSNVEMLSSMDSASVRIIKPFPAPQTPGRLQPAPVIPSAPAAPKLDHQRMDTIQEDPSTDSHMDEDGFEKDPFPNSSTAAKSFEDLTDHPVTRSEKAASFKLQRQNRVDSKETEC
Stromelysin-1, sequence (P08254 whole entry): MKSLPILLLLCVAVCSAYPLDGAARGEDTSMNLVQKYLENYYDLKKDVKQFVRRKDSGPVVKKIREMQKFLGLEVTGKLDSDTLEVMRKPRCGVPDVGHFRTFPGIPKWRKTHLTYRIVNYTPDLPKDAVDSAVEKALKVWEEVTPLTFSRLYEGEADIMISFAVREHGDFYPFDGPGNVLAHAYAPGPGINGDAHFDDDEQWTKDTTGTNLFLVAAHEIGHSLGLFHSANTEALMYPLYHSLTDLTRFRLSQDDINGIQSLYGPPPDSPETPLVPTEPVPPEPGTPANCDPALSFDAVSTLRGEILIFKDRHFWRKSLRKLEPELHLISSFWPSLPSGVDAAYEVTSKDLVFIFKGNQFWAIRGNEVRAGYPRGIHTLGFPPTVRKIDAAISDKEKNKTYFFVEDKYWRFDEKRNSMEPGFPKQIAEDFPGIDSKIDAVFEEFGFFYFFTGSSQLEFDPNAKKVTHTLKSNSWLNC
72 kDa type IV collagenase, sequence (P08253 whole entry): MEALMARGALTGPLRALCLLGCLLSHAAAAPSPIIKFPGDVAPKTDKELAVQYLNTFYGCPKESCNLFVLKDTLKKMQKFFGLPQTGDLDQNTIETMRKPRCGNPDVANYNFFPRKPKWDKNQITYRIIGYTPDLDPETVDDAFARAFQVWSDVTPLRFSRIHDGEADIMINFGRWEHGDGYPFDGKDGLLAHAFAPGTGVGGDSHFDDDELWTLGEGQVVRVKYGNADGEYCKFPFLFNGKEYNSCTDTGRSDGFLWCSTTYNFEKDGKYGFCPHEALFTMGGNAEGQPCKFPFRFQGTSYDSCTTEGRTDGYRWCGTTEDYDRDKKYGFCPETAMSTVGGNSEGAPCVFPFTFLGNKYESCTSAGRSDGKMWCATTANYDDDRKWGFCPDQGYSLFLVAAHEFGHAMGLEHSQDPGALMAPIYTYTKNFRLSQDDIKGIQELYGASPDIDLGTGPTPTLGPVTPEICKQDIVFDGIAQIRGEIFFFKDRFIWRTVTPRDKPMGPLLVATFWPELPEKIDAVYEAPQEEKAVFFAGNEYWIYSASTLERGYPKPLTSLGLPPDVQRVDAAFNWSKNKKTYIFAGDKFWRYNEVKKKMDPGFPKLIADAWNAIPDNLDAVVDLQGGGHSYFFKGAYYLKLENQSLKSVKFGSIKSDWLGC

Cc1cc(S(=O)(=O)N[C@@H](C(=O)NO)C2CCOCC2)ccc1F
IC50 [1]: 4.3 µM | bioavailability [2]: 22% | solubility [3]: 2.5 mg/mL (≈ 7.22 mM) | IC50 (Lethal factor [4]): 0.054 µM | half-life [5]: 1.4 h | Vd [6]: 1.5 L/kg | IC50 (Stromelysin-1): 1.4 µM | IC50 (Interstitial collagenase): 2.2 µM | IC50 [7]: 2 µM | Cmax [8]: 0.12 µM | Cmax [9]: 0.24 µM | Vd [10]: 1 L/kg | half-life [11]: 1.2 h | clearance [12]: 4.32 L/h/kg | IC50 (Lethal factor [13]): 0.054 µM
